According to ChEMBL document CHEMBL5226390, “Synthesis and Structure-Activity Analysis of Icaritin Derivatives as Potential Tumor Growth Inhibitors of Hepatocellular Carcinoma Cells” (J Nat Prod, 2023):
Active and inactive are the calls of the source. The rule behind the calls is not given here.

What was measured:
HepG2 [1] = test: Induction of apoptosis in human HepG2 cells assessed as increase in number of detached cells with fewer cells at 2 to 8 uM incubated for 48 hrs by phase contrast microscopy; format: functional, cell-based; settings: dose 2-8 µM
SMMC-7721 [2] = test: Antiproliferative activity against human SMMC-7721 cells assessed as reduction in cell viability incubated for 48 hrs by MTT assay; format: functional, cell-based; settings: Homo sapiens, SMMC-7721, 48 h; read-out: IC50
HepG2 [3] = test: Induction of apoptosis in human HepG2 cells assessed as necrotic cells at 8 uM incubated for 48 hrs by AnnexinV-FITC/PI staining based flow cytometry (reference value: 2.22%); format: functional
HepG2 [4] = test: Induction of cell cycle arrest in human HepG2 cells assessed as accumulation of cells at G2/M phase at 8 uM incubated for 48 hrs by PI staining based flow cytometry (reference value: 17.89%); format: functional
HepG2 [5] = test: Antiproliferative activity against human HepG2 cells assessed as reduction in cell viability incubated for 48 hrs by MTT assay; format: functional, cell-based; settings: HepG2, 48 h
HepG2 [6] = test: Induction of apoptosis in human HepG2 cells assessed as early apoptotic cells at 2 uM incubated for 48 hrs by AnnexinV-FITC/PI staining based flow cytometry (reference value: 3.41%); format: functional
SMMC-7721 [7] = test: Induction of apoptosis in human SMMC-7721 cells assessed as late apoptotic cells at 8 uM incubated for 48 hrs by AnnexinV-FITC/PI staining based flow cytometry (reference value: 1.51%); format: functional
SMMC-7721 [8] = test: Induction of cell cycle arrest in human SMMC-7721 cells assessed as accumulation of cells at G2/M phase at 4 uM incubated for 48 hrs by PI staining based flow cytometry (reference value: 15.49%); format: functional
HepG2 [9] = test: Induction of cell cycle arrest in human HepG2 cells assessed as upregulation of p21 protein expression at 2 to 8 uM incubated for 48 hrs by western blot analysis; format: functional, cell-based; settings: dose 2-8 µM
SMMC-7721 [10] = test: Induction of cell cycle arrest in human SMMC-7721 cells assessed as downregulation of CDK4 protein expression at 2 to 8 uM incubated for 48 hrs by western blot analysis; format: functional, cell-based; settings: dose 2-8 µM
HepG2 [11] = test: Induction of cell cycle arrest in human HepG2 cells assessed as accumulation of cells at G0/G1 phase at 2 uM incubated for 48 hrs by PI staining based flow cytometry (reference value: 64.11%); format: functional
SMMC-7721 [12] = test: Induction of apoptosis in human SMMC-7721 cells assessed as viable cells at 4 uM incubated for 48 hrs by AnnexinV-FITC/PI staining based flow cytometry (reference value: 85.1%); format: functional; settings: read-out: Activity
SMMC-7721 [13] = test: Induction of cell cycle arrest in human SMMC-7721 cells assessed as accumulation of cells at G2/M phase at 2 uM incubated for 48 hrs by PI staining based flow cytometry (reference value: 15.49%); format: functional
SMMC-7721 [14] = test: Induction of apoptosis in human SMMC-7721 cells assessed as early apoptotic cells at 2 uM incubated for 48 hrs by AnnexinV-FITC/PI staining based flow cytometry (reference value: 1.13%); format: functional
SMMC-7721 [15] = test: Induction of apoptosis in human SMMC-7721 cells assessed as early apoptotic cells at 8 uM incubated for 48 hrs by AnnexinV-FITC/PI staining based flow cytometry (reference value: 1.13%); format: functional
SMMC-7721 [16] = test: Induction of apoptosis in human SMMC-7721 cells assessed as early apoptotic cells at 4 uM incubated for 48 hrs by AnnexinV-FITC/PI staining based flow cytometry (reference value: 1.13%); format: functional
SMMC-7721 [17] = test: Induction of apoptosis in human SMMC-7721 cells assessed as late apoptotic cells at 2 uM incubated for 48 hrs by AnnexinV-FITC/PI staining based flow cytometry (reference value: 1.51%); format: functional
SMMC-7721 [18] = test: Induction of cell cycle arrest in human SMMC-7721 cells assessed as downregulation of p34 protein expression at 2 to 8 uM incubated for 48 hrs by western blot analysis; format: functional, cell-based; settings: dose 2-8 µM
SMMC-7721 [19] = test: Induction of apoptosis in human SMMC-7721 cells assessed as viable cells at 8 uM incubated for 48 hrs by AnnexinV-FITC/PI staining based flow cytometry (reference value: 85.1%); format: functional; settings: read-out: Activity
SMMC-7721 [20] = test: Induction of apoptosis in human SMMC-7721 cells assessed as increase in number of detached cells with fewer cells at 2 to 8 uM incubated for 48 hrs by phase contrast microscopy; format: functional, cell-based; settings: dose 2-8 µM
HepG2 [21] = test: Induction of cell cycle arrest in human HepG2 cells assessed as accumulation of cells at G2/M phase at 4 uM incubated for 48 hrs by PI staining based flow cytometry (reference value: 17.89%); format: functional
HepG2 [22] = test: Induction of cell cycle arrest in human HepG2 cells assessed as accumulation of cells at S phase at 4 uM incubated for 48 hrs by PI staining based flow cytometry (reference value: 18%); format: functional
HepG2 [23] = test: Induction of cell cycle arrest in human HepG2 cells assessed as downregulation of Cdc2 protein expression at 2 to 8 uM incubated for 48 hrs by western blot analysis; format: functional, cell-based; settings: dose 2-8 µM
HepG2 [24] = test: Induction of apoptosis in human HepG2 cells assessed as early apoptotic cells at 4 uM incubated for 48 hrs by AnnexinV-FITC/PI staining based flow cytometry (reference value: 3.41%); format: functional
SMMC-7721 [25] = test: Potency index, ratio of Sorafenib IC50 to test compound IC50 for antiproliferative activity against human SMMC-7721 cells; format: functional
HepG2 [26] = test: Induction of apoptosis in human HepG2 cells assessed as necrotic cells at 2 uM incubated for 48 hrs by AnnexinV-FITC/PI staining based flow cytometry (reference value: 2.22%); format: functional

In the case of `COc1ccc(-c2oc3c(CC=C(C)C)c(OCCN4CCCC4)cc(O)c3c(=O)c2O[C@H]2O[C@H](C)[C@@H](O)[C@H](O)[C@@H]2O)cc1`, the Activity (HepG2 [1]) is reported as “Active”, the IC50 (SMMC-7721 [2]) is reported as 3.1 µM and the Activity (HepG2 [3]) is reported as 16.7%. For the same compound, the Activity (HepG2 [4]) was 6.39%, the IC50 (HepG2 [5]) was 7.6 µM and the Activity (HepG2 [6]) was 1.52%. The Activity (SMMC-7721 [7]) was 8.46%, the Activity (SMMC-7721 [8]) was 14.83% and the Activity (HepG2 [9]) was “Active”. For the same compound, the Activity (SMMC-7721 [10]) was “Active”, the Activity (HepG2 [11]) was 68.79% and the viability at 4 µM (SMMC-7721 [12]) was 89.6%. The Activity (SMMC-7721 [13]) was 13.29%, the Activity (SMMC-7721 [14]) was 1.73% and the Activity (SMMC-7721 [15]) was 3.28%. The Activity (SMMC-7721 [16]) was 2.54%, the Activity (SMMC-7721 [17]) was 5.9% and the Activity (SMMC-7721 [18]) was “Active”. The viability at 8 µM (SMMC-7721 [19]) was 66.2%, the Activity (SMMC-7721 [20]) was “Active” and the Activity (HepG2 [21]) was 10.7%. The Activity (HepG2 [22]) was 9.28%, the Activity (HepG2 [23]) was “Active” and the Activity (HepG2 [24]) was 5.14%. For the same compound, the “Ratio IC50” value (SMMC-7721 [25]) was 2 and the Activity (HepG2 [26]) was 8.93%.
